From ChEMBL document CHEMBL1155546, “Rapid synthesis of an array of trisubstituted urea-based soluble epoxide hydrolase inhibitors facilitated by a novel solid-phase method” (Bioorg Med Chem Lett, 2010)

Experiments:
[1] = target: T1, Bifunctional epoxide hydrolase 2 (Homo sapiens, UniProt P34913); assay: Inhibition of human soluble epoxide hydrolase
T1 sequence (P34913 whole entry): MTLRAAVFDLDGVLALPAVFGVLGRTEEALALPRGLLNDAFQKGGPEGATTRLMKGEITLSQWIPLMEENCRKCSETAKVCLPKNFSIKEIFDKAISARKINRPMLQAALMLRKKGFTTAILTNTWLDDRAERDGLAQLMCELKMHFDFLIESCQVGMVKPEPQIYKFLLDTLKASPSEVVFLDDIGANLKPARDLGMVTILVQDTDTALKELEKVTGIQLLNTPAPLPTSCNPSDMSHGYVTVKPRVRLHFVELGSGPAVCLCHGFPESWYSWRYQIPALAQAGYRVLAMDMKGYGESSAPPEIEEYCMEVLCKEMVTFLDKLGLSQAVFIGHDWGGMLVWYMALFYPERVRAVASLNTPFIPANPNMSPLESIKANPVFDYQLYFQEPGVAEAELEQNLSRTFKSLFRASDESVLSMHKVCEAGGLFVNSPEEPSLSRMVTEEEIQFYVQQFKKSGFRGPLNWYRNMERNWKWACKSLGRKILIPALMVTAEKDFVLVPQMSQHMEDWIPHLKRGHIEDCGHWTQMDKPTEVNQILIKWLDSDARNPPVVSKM

[2] = target: T2, Cytochrome P450 2J2 (Homo sapiens, UniProt P51589); assay: Inhibition of CYP2J2
T2 sequence (P51589 whole entry): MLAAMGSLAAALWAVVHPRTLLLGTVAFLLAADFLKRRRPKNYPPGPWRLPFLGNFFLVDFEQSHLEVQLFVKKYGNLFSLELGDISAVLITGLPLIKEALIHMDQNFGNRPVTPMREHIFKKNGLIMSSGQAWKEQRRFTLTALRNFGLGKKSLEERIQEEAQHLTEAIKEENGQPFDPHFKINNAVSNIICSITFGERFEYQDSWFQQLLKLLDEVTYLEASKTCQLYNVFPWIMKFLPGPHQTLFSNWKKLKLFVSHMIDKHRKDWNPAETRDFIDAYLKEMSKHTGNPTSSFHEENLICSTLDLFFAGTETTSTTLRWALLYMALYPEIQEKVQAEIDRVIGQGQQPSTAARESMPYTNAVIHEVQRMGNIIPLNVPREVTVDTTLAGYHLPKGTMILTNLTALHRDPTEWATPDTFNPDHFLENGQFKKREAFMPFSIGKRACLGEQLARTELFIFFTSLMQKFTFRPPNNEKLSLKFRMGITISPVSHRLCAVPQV

[3] = target: Cytochrome P450 2C9 (Homo sapiens, UniProt P11712); assay: Inhibition of CYP2C9; assay type: ADME
Cytochrome P450 2C9, sequence (P11712 whole entry): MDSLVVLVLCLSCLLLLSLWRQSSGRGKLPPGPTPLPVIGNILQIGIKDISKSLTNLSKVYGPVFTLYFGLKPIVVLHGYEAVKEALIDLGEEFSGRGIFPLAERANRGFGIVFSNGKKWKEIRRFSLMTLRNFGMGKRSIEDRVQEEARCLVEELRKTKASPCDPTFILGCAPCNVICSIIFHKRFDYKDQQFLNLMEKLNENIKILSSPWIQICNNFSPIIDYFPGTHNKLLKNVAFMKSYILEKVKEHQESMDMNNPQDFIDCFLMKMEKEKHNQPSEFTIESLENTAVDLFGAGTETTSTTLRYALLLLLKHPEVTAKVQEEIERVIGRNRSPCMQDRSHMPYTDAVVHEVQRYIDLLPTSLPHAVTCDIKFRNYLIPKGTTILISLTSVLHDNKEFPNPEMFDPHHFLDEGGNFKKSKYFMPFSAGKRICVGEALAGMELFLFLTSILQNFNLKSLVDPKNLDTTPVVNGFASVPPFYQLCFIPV

[4] = Half life in human liver microsome; assay type: ADME; conditions: liver microsomes
[5] = Half life in mouse liver microsome; assay type: ADME; conditions: liver microsomes
[6] = target: T1, Bifunctional epoxide hydrolase 2; assay: Inhibition of human soluble epoxide hydrolase assessed as [2-3H]trans-1,3-diphenyl propylene oxide hydrolysis by cellular assay

Compound | IC50 [1] | IC50 [2] | IC50 [3] | half-life [4] | half-life [5] | IC50 [6]
O=C(NCc1ccccc1OC(F)(F)F)N1CCC(Oc2ccncc2)CC1 | 14 nM | 10000 nM | 800 nM | 34 min | 42 min | –
O=C(NCCC(c1ccc(F)cc1)c1ccc(F)cc1)N1CCC(Oc2cnccn2)CC1 | 1 nM | – | 2900 nM | 7 min | 2 min | 13 nM
O=C(NCc1ccccc1OC(F)(F)F)N1CCC(Oc2ncccn2)CC1 | 4 nM | 2000 nM | 10200 nM | 54 min | 10 min | 40 nM
O=C(NCc1ccc(Cl)cc1Cl)N1CCC(Oc2ccncc2)CC1 | 9 nM | 2700 nM | 100 nM | 42 min | 25 min | 22 nM
O=C(NCc1ccccc1OC(F)(F)F)N1CCC(c2ccncc2)C1 (stereo not drawn) | 7 nM | 10000 nM | 300 nM | 23 min | 42 min | 76 nM
O=C(NCCC(c1ccc(F)cc1)c1ccc(F)cc1)N1CCC(c2cnccn2)C1 (stereo not drawn) | 3 nM | – | 8100 nM | 2 min | 2 min | 4 nM
